Series [1] concerns the target T1, rat 5HT2C receptor (Rattus norvegicus, UniProt P08909).
T1 construct: expressed in transfected cells
T1 sequence (P08909 33-460): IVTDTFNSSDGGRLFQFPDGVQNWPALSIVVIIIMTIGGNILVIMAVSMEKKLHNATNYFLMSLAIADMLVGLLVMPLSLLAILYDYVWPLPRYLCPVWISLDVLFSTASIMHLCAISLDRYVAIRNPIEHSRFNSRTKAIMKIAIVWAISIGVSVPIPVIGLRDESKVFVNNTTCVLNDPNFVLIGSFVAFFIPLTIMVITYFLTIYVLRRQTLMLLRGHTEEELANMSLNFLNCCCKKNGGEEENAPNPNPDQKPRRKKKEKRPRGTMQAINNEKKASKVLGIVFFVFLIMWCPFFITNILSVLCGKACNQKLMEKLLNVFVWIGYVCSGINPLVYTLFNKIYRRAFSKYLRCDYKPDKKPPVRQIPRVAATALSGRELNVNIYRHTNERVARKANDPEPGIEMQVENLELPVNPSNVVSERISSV
As to the kind of experiment: Binding affinity at the rat 5HT2C receptor. The following applies: Table 3a; read-out: r5HT2C Ki. The source says:
(§1) The design of such compounds can be optimized by determining their binding affinity at the recombinant MCH1, NPY1, NPY2, Gal1, Gal2, Gal3, and 5HT2C receptors. The methods to obtain the cDNA of the receptor, express said receptors in heterologous systems, and carry out assays to determine binding affinity are described in the following publications: human NPY1 (Larhammar et al., 1992), human NPY5 (U.S. Pat. No. 5,602,024, the disclosure of which is hereby incorporated by reference in its entirety into this application), human Gall (Habert-Ortoli et al., 1994), human Gal2 (Smith et al., 1997), human Gal3 (Smith et al., 1998), and rat 5HT2C (Julius et al., 1988). Additionally, the compounds would optimally not bind at the following receptors due to possible side effects: human H1 histamine and human H2 histamine receptors; human alpha-1A adrenergic, human alpha-1D adrenergic, human alpha-2A adrenergic, human alpha-2B adrenergic, and human alpha-2C adrenergic receptors; human dopamine D1, D2, D3, D4, and D5 receptors; the β-adrenoceptor; and the human 5HT1A, human 5HT1B, human 5HT1D, human 5HT1E, human 5HT1F, human 5HT2A, rat 5HT2C, human 5HT4, human 5HT6, and human 5HT7 receptors.
Other 5HT Receptors: Other serotonin receptor binding assays were performed according to published methods: rat 5HT2C receptor (Julius et al., 1988); and 5HT6 (Monsma, et al., 1993). The binding assays using the 5HT4 receptor were performed according to the procedures described in U.S. Pat. No. 5,766,879, the disclosure of which is hereby incorporated by reference in its entirety into this application.

In series [2] the target is T2, human GALR1 receptor (Homo sapiens, UniProt P47211).
T2 construct: expressed in transfected cells
T2 sequence (P47211 1-349): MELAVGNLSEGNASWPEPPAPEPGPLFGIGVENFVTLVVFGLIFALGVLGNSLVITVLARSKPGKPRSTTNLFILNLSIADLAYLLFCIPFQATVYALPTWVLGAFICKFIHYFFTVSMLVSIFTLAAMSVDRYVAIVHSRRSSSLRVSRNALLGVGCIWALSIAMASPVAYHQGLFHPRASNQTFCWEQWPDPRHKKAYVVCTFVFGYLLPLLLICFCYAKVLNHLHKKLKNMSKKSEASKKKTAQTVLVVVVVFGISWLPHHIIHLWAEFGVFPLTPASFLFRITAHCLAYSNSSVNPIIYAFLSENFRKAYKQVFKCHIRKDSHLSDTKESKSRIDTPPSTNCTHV
The experiment in a line: Binding affinity at the human GALR1 receptor. To be noted: read-out: hGALR1 Ki.
Source text: as §1

For series [3], the target named is T3, human MCH1 receptor (Homo sapiens, UniProt Q99705). The experiment in a line: Intracellular calcium response to MCH in COS-7 cells transfected with MCH1 (fluo-3, FLIPR): antagonist potency. It is filed as cell-based. The arrangement: expressed in transfected cells; host or cells: COS-7. To be noted: read-out: Kb (nM) hMCH1. The source says: MCH1 antagonist compounds were identified by their ability to inhibit the MCH-elicited response. […]. From the IC50 values, the antagonist potency (Kb)was derived using the Cheng-Prussof correction (Lazareno and Birdsall, 1993). […]
T3 sequence (Q99705 whole entry): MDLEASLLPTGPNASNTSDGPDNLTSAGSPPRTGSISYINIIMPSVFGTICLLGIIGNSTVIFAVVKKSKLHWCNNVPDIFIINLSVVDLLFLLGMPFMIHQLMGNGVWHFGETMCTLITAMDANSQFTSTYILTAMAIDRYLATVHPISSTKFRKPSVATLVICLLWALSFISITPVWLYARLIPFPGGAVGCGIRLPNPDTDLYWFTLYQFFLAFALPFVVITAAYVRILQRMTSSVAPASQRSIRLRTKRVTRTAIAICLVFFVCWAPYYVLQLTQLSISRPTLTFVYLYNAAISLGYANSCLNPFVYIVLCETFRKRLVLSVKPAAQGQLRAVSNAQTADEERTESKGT
A general note: Calcium flux is commonly read through the fluorescence of an indicator in the cells.

For series [4], the target named is T4, human GALR2 receptor (Homo sapiens, UniProt O43603).
T4 construct: expressed in transfected cells
T4 sequence (O43603 1-387): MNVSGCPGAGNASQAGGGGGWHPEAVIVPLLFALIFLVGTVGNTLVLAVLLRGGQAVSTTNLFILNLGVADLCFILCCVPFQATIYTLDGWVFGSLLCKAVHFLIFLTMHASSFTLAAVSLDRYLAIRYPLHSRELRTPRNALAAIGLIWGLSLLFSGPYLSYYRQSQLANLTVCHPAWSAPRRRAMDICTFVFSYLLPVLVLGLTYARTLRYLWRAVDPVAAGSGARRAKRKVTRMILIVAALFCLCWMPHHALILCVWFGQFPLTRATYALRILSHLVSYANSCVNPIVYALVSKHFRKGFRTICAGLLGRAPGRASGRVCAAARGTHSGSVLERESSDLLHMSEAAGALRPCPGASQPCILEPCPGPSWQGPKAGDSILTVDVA
As to the kind of experiment: Binding affinity at the human GALR2 receptor. To be noted: Table 3a; read-out: hGALR2 Ki.
Source text: as §1

The target of series [5] is T5, human GALR3 receptor (Homo sapiens, UniProt O60755).
T5 construct: expressed in transfected cells
T5 sequence (O60755 1-368): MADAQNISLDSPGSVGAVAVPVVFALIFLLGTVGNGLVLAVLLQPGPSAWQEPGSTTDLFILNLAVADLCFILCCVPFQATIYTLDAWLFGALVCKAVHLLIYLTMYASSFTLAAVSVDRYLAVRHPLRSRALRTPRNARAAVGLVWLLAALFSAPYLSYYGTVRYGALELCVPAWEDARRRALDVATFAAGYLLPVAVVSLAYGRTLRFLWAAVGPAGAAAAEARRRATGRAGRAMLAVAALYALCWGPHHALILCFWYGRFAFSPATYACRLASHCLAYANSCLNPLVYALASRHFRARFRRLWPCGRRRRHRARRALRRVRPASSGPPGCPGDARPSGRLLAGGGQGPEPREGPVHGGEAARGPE
The experiment in a line: Binding affinity at the human GALR3 receptor. To be noted: read-out: hGALR3 Ki.
Source text: as §1

For series [6], the target named is T3, human MCH1 receptor. The experiment in a line: Competition binding, membrane preparations of A293 cells expressing the human MCH1 receptor, [3H] Compound 10 as radioligand. The arrangement: expressed in transfected cells. To be noted: Table 3b; A293 cell membranes, [3H] Compound 10; read-out: hMCH1* Ki. As to the method: TRITIATED METHYL (4S)-3-{[(3-{4-[3-(ACETYLAMINO)PHENYL]-1-[…]}PROPYL)AMINO]CARBONYL}-4-(3,4-DIFLUOROPHENYL)-6-(METHOXYMETHYL)-2-OXO-1,2,3,4-TETRAHYDRO-5-PYRIMIDINECARBOXYLATE ([^3H] COMPOUND 10): This radiochemical synthesis was carried out by Amersham Pharmacia Biotech, Cardiff, Wales. A methanolic solution of methyl (4S)-3-({[3-(4-[3-(acetylamino)phenyl]-3,6-dihydro-1(2H)pyridinyl)propyl]amino}carbonyl)-4-(3,4-difluorophenyl)-6-(methoxymethyl)-2-oxo-1,2,3,4-tetrahydro-5-pyrimidinecarboxylate was exposed to tritium gas at 1 atmosphere pressure in the presence of 5% palladium on carbon with stirring overnight to give the tritiated methyl (4S)-3-{[(3-{4-[3-(acetylamino)phenyl]-1-piperidinyl}propyl)amino]carbonyl}-4-(3,4-difluorophenyl)-6-(methoxymethyl)-2-oxo-1,2,3,4-tetrahydro-5-pyrimidinecarboxylate ((+)-isomer) After purification by reverse phase HPLC (Hypersil ODS, 4.6×100 mm, methanol:H2O:Et3N 10:90:1 to 100:0:1 in 15 min at 1.0 mL/min, with radiochemical and UV detection), this product was used as a radioligand in the MCH1 binding assays. The same procedure was carried out with H2 gas in place of ^3H2 to afford the non-radioactive version of Compound 10.

pKi: −log10 of the molar value. Where a name gives a salt, the structure may show the parent alone. Read-outs that look alike come from different tables or passages of the source.

As usually defined, the pKi is the negative decadic logarithm of the Ki, by convention in mol/L. In general, melting point refers to the temperature, or range, at which the solid turns liquid. A word on the Kb: it is the affinity of an antagonist, worked out from how it opposes an agonist.

In turn, `COCC1=C(C(=O)OC)C(c2ccc(F)c(F)c2)N(C(=O)NCCCN2CCC(c3cccc4ccccc34)CC2)C(=O)N1` (single isomer, unassigned; (+)) [Example 14, (+)-1,2,3,6-TETRAHYDRO-1-{N-[4-(1-NAPHTHYL)-PIPERIDIN-1-YL]PROP-YL}CARBOXAMIDO-4-METHOXYMETHYL-6-(3,4-DIFLUOROPHENYL)-2-OXO-PYRIMIDINE-5-CARBOXYLIC ACID METHYL ESTER] gave a melting point of 168 to 172 °C. In series [1], the pKi is 6.18. For the same compound, in series [2] (Table 3a), the pKi was below 4.30. Besides, in series [2] (Table 3b), the pKi was below 4.30. Moreover, the Kb in series [3] was 2 nM. In addition, the pKi in series [4] is 4.37. Also, the pKi in series [5] (Table 3a) is below 4.30. Also, the pKi in series [5] (Table 3b) was below 4.30. For the same compound, the pKi in series [6] was 7.30.
`COCC1=C(C(=O)OC)C(c2ccc(F)c(F)c2)N(C(=O)NCCCN2CCC(c3cccc(OC)c3)CC2)C(=O)N1` (single isomer, unassigned; (+)) [Example 9, (+)-1,2,3,6-TETRAHYDRO-1-N-[4-(3-METHOXY)-PHENYL}-PIPERIDIN-1-YL]-PROPYL-CARBOXAMIDO-4-METHOXYMETHYL-6-(3,4-DIFLUOROPHENYL)-2-OXOPYRIMIDINE-5-CARBOXYLIC ACID METHYL ESTER] gave a melting point of 80 to 84 °C. The Kb in series [3] was found to be 35 nM.
For `COCC1=C(C(=O)OC)C(c2ccc(F)c(F)c2)N(C(=O)NCCCN2CCC(O)(c3ncccc3C)CC2)C(=O)N1` (single isomer, unassigned; (+)) [Example 16, (+)-1,2,3,6-TETRAHYDRO-1-{N-[4-HYDROXY-4-(2-PYRIDYL)-PIPERIDIN-1-YL]PROPYL}CARBOXAMIDO-4-METHOXYMETHYL-6-(3,4-DIFLUOROPHENYL)-2-OXOPYRIMIDINE-5-CARBOXYLIC ACID METHYL ESTER] the same measures were 132 to 135 °C and 329 nM.
Compound `O=C(CCCN1CCC(NC(=O)c2ccccc2)CC1)c1ccc(Cl)cc1` (as salt: HCl) [Example 28, [3-(4-CHLOROBENZOYL)]PROPYL-4-BENZAMIDOPIPERIDINE] had a melting point of 243 to 244 °C.
The same measure, in the same setting: the figure for `COC(=O)C1=C(C)NC(=O)N(C(=O)NCCCN2CCC3(CC2)OCc2ccccc23)C1c1ccc(F)c(F)c1` (centres unmarked) (as salt: hydrochloride) [Example 20, 4-(3,4-DIFLUORPHENYL)-6-METHYL-2-OXO-3-{[3-(4-SPIRO[ISOBENZOFURAN-1(3H),4′-PIPERIDINE]PROPYL}-1,2,3,4-TETRAHYDROPYRIMIDINE-5-CARBOXYLIC ACID METHYL ESTER] is 178 to 182 °C; for `COC(=O)C1=C(C)NC(=O)N(C(=O)NCCCN2CCC3(CC2)OCc2ccccc23)C1c1ccc2nonc2c1` (single isomer, unassigned) (as salt: hydrochloride) [Example 18] it is 180 to 182 °C; for `COC(=O)C1=C(C)NC(=O)N(C(=O)NCCCN2CCN(c3ccccc3C)CC2)C1c1ccc(F)c(F)c1` (centres unmarked) (as salt: hydrochloride) [Example 35, 1,2,3,6-TETRAHYDRO-1{N-[4-(2′-METHYL-PHENYL)PIPERAZIN-1-YL]-PROPYL}-CARBOXAMIDO-4-METHYL-6-(3,4-DIFLUOROPHENYL)-2-OXO-PYRIMIDINE] it is 66 to 71 °C.
